Data taken from paper PMC6222380 (Molecules : A Journal of Synthetic Chemistry and Natural …, 2018).
Values joined by “and” are separate entries in the source; they are usually repeats but may differ in a detail not shown here. Equal entries are not always repeated. Where two headings read alike, the source gives them in different places.

Experiments:
CB1 receptor = target: T1, CB1 receptor (Homo sapiens, UniProt P21554); assay: Competitive [3H]-CP55,940 radioligand binding assay, CB1; settings: for Further binding analysis at CB1 (binding curve outcome): curves plateaued well before 100% receptor occupancy (Figure S2)
T1 construct: transiently transfected with full-length human recombinant cDNA (OriGene, Rockville, MD, USA); host or cells: HEK293
Protocol: (§1) HEK293 cells were collected and transiently transfected with full-length human recombinant cDNA (OriGene, Rockville, MD, USA) containing expression clones to generate separate cell lines expressing either the CB1 or CB2 receptors (50 µg/mL) using electroporation (70 ms, single pulse, 150 volts). Transfected cells were grown in a 150 cm^2 Petri dish at 37 °C. G418 antibiotic solution (800 μg/mL) was used for selection. After selection, the HEK293 cells were further cultured until single colonies were obtained. The colonies with binding ratio (%) over 80% were chosen for binding and functional assays.
(§2) Cell plasma membranes were prepared from cells with stable expression of CB1 or CB2 receptors. Cells grown to confluency were lysed and scraped in cold 50 mM Tris-HCl buffer at pH 7.4 and then centrifuged at 1000 rpm for 10 min at 4 °C. The supernatant was discarded while the pellets were resuspended in the same buffer. A Sonic Dismembrator Model 100 (Fisher Scientific, Pittsburgh, PA, USA) was used to homogenize the cell suspension for 30 s, which was then centrifuged at 3165 rpm for 10 min at 4 °C to separate the membranes and cytosolic fractions. The supernatant was saved, and the pellet underwent the suspension and homogenization process repeated two more times with the same conditions. The supernatants were combined and centrifuged at 13,650 rpm for 40 min at 4 °C. The pellet was re-suspended in cold 50 mM Tris-HCl buffer, aliquoted into 2 mL vials, and stored at −80 °C. The total membrane protein concentration was measured using a Pierce BCA Protein Assay Kit (Thermo Scientific, Rockford, IL, USA) as per the manufacturer’s protocol.
(§3) Competitive binding assays were performed with a modified rapid filtration assay described by Ma et al. (2007) and Felder et al. (1992). […] The reaction was terminated via rapid vacuum filtration with cold Tris-HCl with 0.1% BSA through a 96-well UniFilter GF/C filter precoated with 0.5% Polyethyleneimine (PEI,) to separate bound and unbound radioligand. Filter plates were dried at 50 °C for at least 30 min, then 25 μL MicroScint-20 was applied to each filter and the plates were read on a TopCount NXT HTS Microplate Scintillation Counter (PerkinElmer, Waltham, MA). Filter bound radioactivity was recorded in counts per minute (CPM).
(§4) The percent binding of the nonlabeled control to the receptor was calculated using total, specific, and nonspecific binding. […] All the experimental data were analyzed using a nonlinear regression curve fit model using GraphPad Prism 5.0 software (GraphPad Software, Inc., San Diego, CA, USA) and the Kd value was calculated. Each compound was tested in triplicate, unless stated otherwise.
(§5) Percent displacement of radioligand was determined using the following equation:(1) % displacement of radioligand=100 –(compound.CPM−nonspecific.CPM/specific.CPM ×100)
(§6) The IC50 and Ki values were calculated from a nonlinear regression curve fit model using GraphPad Prism 5.0 software (GraphPad Software, Inc., San Diego, CA, USA).

CB2 receptor = target: T2, CB2 receptor (Homo sapiens, UniProt P34972); assay: Competitive [3H]-CP55,940 radioligand binding assay, CB2; settings: for Ki: read-out: Ki ± SEM CB2; for IC50: Table 1, superscript a = up to solubility limit, read-out: IC50 ± SEM CB2
T2 construct: transiently transfected with full-length human recombinant cDNA (OriGene, Rockville, MD, USA); host or cells: HEK293
Protocol: as §1, §2, §3, §4, §5, §6

[1] = target: T3, human cannabinoid type 1 receptor (Homo sapiens, UniProt P21554); assay: CB1 GTPγS functional assay; type: biochemical
T3 construct: transiently transfected with full-length human recombinant cDNA (OriGene, Rockville, MD, USA); host or cells: HEK293
Protocol: The CB1 GTPγS functional assays were performed as previously described with some modifications. The assays were performed in […] of 50 mM Tris-HCl, pH = 7.4, 150 mM NaCl, 9 mM MgCl2, 0.2 mM EDTA, 1.4 mg/mL essentially fatty acid free BSA, 50 pM [^35S]-GTPγS ([^35S]-guanosine 5′-(γ-thio) triphosphate (PerkinElmer, Waltham, Massachusetts)), and 30 μg of protein per well harvested from HEK293 cells stably transfected with a plasmid overexpressing the human cannabinoid type 1 receptor. […] Plates were incubated for 90 min at 37 °C with gentle agitation in 96-well microplates, harvested with a PerkinElmer FilterMate Harvester through Unifilter GF/B filter plates (prewetted for 30 min with 0.3% BSA), and then washed 10× with […] of ice-cold 50 mM TrisHCl, pH 7.4. The filter plates were dried at 50 °C for at least 30 min. The radioactivity retained on the filters was quantified by adding […] MicroScint20 per well, incubating the filter plate overnight at room temperature to allow the radioactivity to solubilize into the scintillation fluid, and counting on a TopCount NXT Microplate Scintillation counter. Percent over basal was calculated in Microsoft Excel by subtracting the mean basal control from each value obtained and then dividing by the basal specific activity (mean basal control∓mean nonspecific binding control). Dose response curves (± SEM) of percent over basal versus log of the molar concentration of unlabeled ligand(s) were generated by a nonlinear curve fit model using GraphPad Prism 5.0 software.

[2] = Table S1 preliminary screening, 10 μM
[3] = Table 1, initial full-curve binding, superscript a = up to solubility limit, read-out: IC50 ± SEM CB1
[4] = Table 1 and text, initial full-curve binding, read-out: Ki ± SEM CB1

T3 sequence (P21554 whole entry): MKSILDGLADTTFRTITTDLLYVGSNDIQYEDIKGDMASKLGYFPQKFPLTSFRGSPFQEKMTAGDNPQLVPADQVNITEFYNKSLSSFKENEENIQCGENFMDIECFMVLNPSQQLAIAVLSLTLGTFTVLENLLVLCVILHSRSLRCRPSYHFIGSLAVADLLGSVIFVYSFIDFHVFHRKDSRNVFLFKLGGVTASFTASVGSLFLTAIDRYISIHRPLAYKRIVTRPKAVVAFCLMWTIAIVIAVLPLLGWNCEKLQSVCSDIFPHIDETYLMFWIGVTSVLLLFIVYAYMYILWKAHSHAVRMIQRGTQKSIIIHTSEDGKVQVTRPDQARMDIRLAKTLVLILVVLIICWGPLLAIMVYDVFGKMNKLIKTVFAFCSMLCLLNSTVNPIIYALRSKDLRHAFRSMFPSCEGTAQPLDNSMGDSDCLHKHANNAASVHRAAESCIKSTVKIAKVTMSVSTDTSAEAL
T1 sequence (P21554 whole entry): as above
T2 sequence (P34972 whole entry): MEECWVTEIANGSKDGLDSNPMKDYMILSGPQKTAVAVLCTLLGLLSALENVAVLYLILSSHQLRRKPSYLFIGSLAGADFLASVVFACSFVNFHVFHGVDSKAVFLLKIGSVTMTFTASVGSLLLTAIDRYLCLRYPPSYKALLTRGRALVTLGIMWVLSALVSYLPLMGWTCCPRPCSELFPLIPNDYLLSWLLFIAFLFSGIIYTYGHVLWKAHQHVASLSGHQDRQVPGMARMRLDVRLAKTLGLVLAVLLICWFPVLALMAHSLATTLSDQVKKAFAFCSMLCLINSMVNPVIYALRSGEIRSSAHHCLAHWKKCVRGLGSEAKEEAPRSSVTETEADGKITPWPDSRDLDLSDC

SMILES: O=c1[nH]n(C2CCCCCC2)c2nc3c(oc4c(O)c(O)ccc43)c(-c3ccc(O)cc3)c12 [Compound 13]
- % displacement at 10 μM CB1 (CB1 receptor; [2]): 23.1%
- % displacement at 10 μM CB2 (CB2 receptor; [2]): 37.4%

SMILES: CCCCCCc1cc(-c2onc(C)c2-c2ccc(Br)cc2)c(O)cc1OC [PCB-164]
- % displacement at 10 μM CB1 (CB1 receptor; Table 2, 10 µM): 29.8%
- Ki (CB2 receptor; Table 2, analogs of compound 16): 156 ± 17.3 nM
- % displacement at 10 μM CB2 (CB2 receptor; Table 2, 10 µM): 97.2%

SMILES: Oc1ccc(-c2onc(C(F)(F)F)c2-c2ccccc2)c(O)c1 [PCB-165]
- Ki (CB1 receptor; Table 2, analogs of compound 16, read-out: Ki ± SEM CB1): > 10000 nM
- % displacement at 10 μM CB1 (CB1 receptor; Table 2, 10 µM): 33.0%

SMILES: COc1ccc2[nH]c3c(c2c1)CCNC3c1c(O)n(CCc2ccccc2)c(=S)[nH]c1=O (stereo not shown) [Compound 7]
- Further binding analysis at CB1 (binding curve outcome) (CB1 receptor): no true affinity
- % displacement at 10 μM CB2 (CB2 receptor; [2]): 15.7%

SMILES: COC(=O)CC(c1ccc(O)cc1)c1oc(CSc2ccccc2)cc(=O)c1O (stereo not shown) [Compound 14]
- % displacement at 10 μM CB1 (CB1 receptor; [2]): 18.7%
- % displacement at 10 μM CB2 (CB2 receptor; [2]): 30%

SMILES: O=C(COc1cc(O)c2c(=O)cc(-c3ccccc3)oc2c1)NCCCN1CCCC1=O [Compound 9]
- % displacement at 10 μM CB1 (CB1 receptor; [2]): 28.6%
- % displacement at 10 μM CB2 (CB2 receptor; [2]): 30.2%

SMILES: COc1cc(C)cc2oc(=O)c(CC(=O)N[C@@H](CSCc3ccccc3)C(=O)O)c(C)c12 [Compound 5]
- % displacement at 10 μM CB1 (CB1 receptor; [2]): 14%
- % displacement at 10 μM CB2 (CB2 receptor; [2]): 15.5%

SMILES: COc1ccccc1NC(=O)C1CC(O)CN1C(=O)OCc1ccccc1 (stereo not shown) [Compound 4]
- % displacement at 10 μM CB1 (CB1 receptor; [2]): 13.9%

SMILES: Cc1ccc(COc2ccc(-c3nc(N)ncc3Oc3ccccc3Br)c(O)c2)cc1 [Compound 15]
- Further binding analysis at CB1 (binding curve outcome) (CB1 receptor): no true affinity
- % displacement at 10 μM CB2 (CB2 receptor; [2]): 35.5%

SMILES: COc1ccc(-n2cc(C(=O)O)c3c2C(c2ccc(O)c(OC)c2)CC(=O)N3)cc1 (stereo not shown) [Compound 11]
- % displacement at 10 μM CB1 (CB1 receptor; [2]): 37.6%
- % displacement at 10 μM CB2 (CB2 receptor; [2]): 13.1%

SMILES: COc1ccc2c(ccn2CCC(=O)N[C@@H](Cc2c[nH]c3ccccc23)C(=O)O)c1 [Compound 10]
- % displacement at 10 μM CB1 (CB1 receptor; [2]): 30.2%
- % displacement at 10 μM CB2 (CB2 receptor; [2]): 17.3%

SMILES: COCCN1C(=O)C(O)=C(C(=O)c2ccc3c(c2)CC(C)O3)C1c1ccc(C(C)C)cc1 (stereo not shown) [Compound 3]
- % displacement at 10 μM CB1 (CB1 receptor; [2]): ~ 10%
- Ki (CB2 receptor; Table 1 and text): 2600 nM
- % displacement at 10 μM CB2 (CB2 receptor; [2]): 51% and > 50%

SMILES: COC(=O)c1ccc(C=C2Oc3c(ccc(O)c3CN(CC(C)C)CC(C)C)C2=O)cc1 [Compound 17]
- Further binding analysis at CB1 (binding curve outcome) (CB1 receptor): no true affinity
- % displacement at 10 μM CB2 (CB2 receptor; [2]): 35%

SMILES: Cc1cc(O)c2c(C)c(CC(=O)N[C@@H](CSCc3ccccc3)C(=O)O)c(=O)oc2c1 [Compound 6]
- % displacement at 10 μM CB1 (CB1 receptor; [2]): 28%
- % displacement at 10 μM CB2 (CB2 receptor; [2]): 26.7%

SMILES: Cc1noc(-c2ccc(O)cc2O)c1-c1ccc(Br)cc1 [Compound 16]
- IC50 (CB1 receptor; 16 rescreened, data from Figure 4, up to solubility limit, read-out: IC50 ± SEM CB1 (rescreen)): 242 ± 70 nM
- Ki (CB1 receptor; 16 rescreened, data from Figure 4, up to solubility limit, read-out: Ki ± SEM CB1 (rescreen)): 121 ± 40 nM
- IC50 (CB1 receptor; [3]): 20800 ± 4900 nM
- Ki (CB1 receptor; [4]): 10400 ± 2500 nM
- % displacement at 10 μM CB1 (CB1 receptor; [2]): 61.8%
- Ki (CB1 receptor; rescreen experiment, value printed in picture, read-out: CB1 Receptor Binding Ki (printed in Figure 4)): 121 nM
- Functional phenotype at CB1 in GTPγS assay [1]: inverse agonist
- EC50 ([1]; read-out: EC50 CB1 GTPγS): 128 nM
- % displacement at 10 μM CB2 (CB2 receptor; [2]): 40.2%

SMILES: COC(=O)CC(c1ccc2c(c1)OCO2)c1oc(CSc2ccccc2)cc(=O)c1O (stereo not shown) [Compound 12]
- IC50 (CB1 receptor; [3]): > 5300 nM
- Ki (CB1 receptor; [4]): > 2600 nM
- % displacement at 10 μM CB1 (CB1 receptor; [2]): 69.9% and > 50%
- EC50 [1]: 1600 nM
- Functional phenotype at CB1 in GTPγS assay [1]: inverse agonists
- IC50 (CB2 receptor): > 5930 nM
- Ki (CB2 receptor; Table 1 and text): > 2970 nM
- % displacement at 10 μM CB2 (CB2 receptor; [2]): 63% and > 50%

SMILES: O=C(O)C(Cc1ccccc1)NCc1c(O)ccc2c(-c3ccccc3)cc(=O)oc12 (stereo not shown) [Compound 1]
- % displacement at 10 μM CB1 (CB1 receptor; [2]): 14.1%

SMILES: CN(Cc1ccccc1)Cc1c(O)ccc2c1OC(=Cc1cn(C)c3ccccc13)C2=O [Compound 18]
- IC50 (CB1 receptor; [3]): 24600 ± 2600 nM
- Ki (CB1 receptor; [4]): 12300 ± 1300 nM
- % displacement at 10 μM CB1 (CB1 receptor; [2]): 69%
- IC50 (CB2 receptor): 101 ± 35 nM
- Ki (CB2 receptor; Table 1 and text): 51 ± 10 nM
- % displacement at 10 μM CB2 (CB2 receptor; [2]): 61.2%

SMILES: COc1ccc2[nH]c3c(c2c1)CCN1C(=O)CN(CCc2c[nH]c4ccccc24)C(=O)[C@]31C [Compound 2]
- IC50 (CB1 receptor; [3]): 3200 ± 1000 nM
- Ki (CB1 receptor; [4]): 1600 nM and 1620 nM
- % displacement at 10 μM CB1 (CB1 receptor; [2]): 81.8%
- EC50 [1]: 759 nM
- Functional phenotype at CB1 in GTPγS assay [1]: inverse agonists
- IC50 (CB2 receptor): 3250 ± 500 nM
- Ki (CB2 receptor; Table 1 and text): 1600 nM and 1620 nM
- % displacement at 10 μM CB2 (CB2 receptor; [2]): 67.2%
